Experimental data published in patent US20130171158A1, “TREATMENT OF ABNORMALITIES OF GLUCOSE METABOLISM WITH AN ANTAGONIST OF INHIBITOR OF DIFFERENTIATION 1” (GARVAN INSTITUTE OF MEDICAL RESEARCH, priority 2010, published 2013).

Test system: MIN6 cells
Assay: Insulin secretion assay in MIN6 cells treated with palmitate with or without Cannabidiol
Assay type: cell-based, mouse
Conditions: 10 μM Cannabidiol, 0.4 mM palmitate coupled to 0.92% BSA for 48 h; 2.8 or 25 mM glucose for 1 h
Protocol: FIG. 11 is a graphical represenatation showing that an inhibitor of Id1 expression (Cannabidiol) protects MIN6 beta cells against lipid (palmitate)-induced insulin secretory dysfunction. Cells were treated with either 0.92% BSA or 0.92% BSA coupled to 0.4 mM palmitate for 48 h, in combination with the absence or presence of 10 μM Cannabidiol. Insulin secretion assay was performed. After 30-min preincubation in KRB medium containing 2.8 mM glucose, the cells were incubated in KRB medium containing either 2.8 mM glucose (clear bars) or 25 mM glucose (dark bars) for 1 h. Medium was taken to determine levels of insulin secretion. Insulin secretion expressed as fold change compared with Control cells incubated with 25 mM glucose. Results are means±SE. The MIN6 cell line was also used to examine the effects of inhibition of Id1 on lipid-induced insulin secretory dysfunction. MIN6 cells were grown in DMEM. Cells were seeded at 2×10^5 cells per well in 24-well plates. Cells were treated with either 0.92% BSA or 0.92% BSA coupled to 0.4 mM palmitate for 48 h, in combination with the absence or presence of 10 μM Cannabidiol. After chronic incubation, cells were washed in KRB buffer containing 2.8 mM glucose, and then they were preincubated for a further 30 min in 0.5 ml of the same medium at 37° C. […]

## C=C(C)[C@@H]1CCC(C)=C[C@H]1c1c(O)cc(CCCCC)cc1O [Cannabidiol]
  protection against palmitate-induced insulin secretory dysfunction: protected the cells against palmitate-induced insulin secretory dysfunction
